Test results published in patent US20240166680A1, “NUCLEOSIDE ANALOG AND USE THEREOF” (SHANGHAI INSTITUTE OF MATERIA MEDICA, CHINESE ACADEMY OF …, priority 2021, published 2024).
Like-named read-outs stand apart in the source and are kept apart here.

Key:
influenza A virus (H3N2) = experiment: Inhibition of influenza virus H3N2 replication by CPE in MDCK; format: cell-based; settings: MDCK cells
[1] = Cytotoxicity in MDCK cells (no viral infection); format: cell-based; settings: dog, without viral infection, read-out: H3N2 (MDCK) CC50
Procedure: Determination of the inhibitory activity of compounds on the replication of respiratory syncytial virus (RSV), human coronavirus OC43, influenza A virus, and Zika virus by Cytopathogenic effect (CPE): the experimental cells were inoculated at a certain cell density to 96 well cell culture plates, and cultured overnight in a 5% CO2, 37° C. incubator. The compounds and viruses were added the next day. Depending on the tested virus, the cells were cultured in an incubator for 3-7 days under 5% CO2, 33° C. or 37° C., until 80-95% of the cells in the virus-infected control wells without compound had pathological changes. Cell viability in each well was then detected with CellTiter-Glo or CCK-8. […] The cytotoxicity test method is the same as the corresponding antiviral test method, but without viral infection.
The antiviral activity and cytotoxicity of the compound are represented by the inhibition rate (%) of the compound on the virus-induced cellular viral effect and the cell viability (%), respectively. Calculation equations are as follows:
Cell viability (%)=(reading value of test well−average value of medium control)/(average value of cell control−average value of medium control)×100;
EC50 and CC50 values were calculated by Prism software, and the inhibition curve fitting method was “log (inhibitor) vs. response—Variable slope”.

[2] = format: in vivo, cynomolgus monkey; settings: cynomolgus monkeys, single intragastric 0.35 mmol/kg
Zika virus = experiment: Inhibition of Zika virus replication by CPE in Huh7; format: cell-based; settings: Huh-7, read-out: Zika (Huh7) Inhibition rate
[3] = tested on: respiratory syncytial virus (RSV); experiment: Inhibition of respiratory syncytial virus replication by CPE in HEp-2; format: cell-based; settings: human respiratory syncytial virus, HEp-2, read-out: RSV (HEp-2) EC50
in vitro = settings: human

SMILES | EC50 (influenza A virus (H3N2)) | CC50 [1] | EC50 [3] | CC50 (in vitro) | further results
CC(C)C(=O)OC[C@H]1O[C@@H](n2ccc(NO)nc2=O)[C@@H]2OC(=O)O[C@@H]21 [Compound A2] | > 10 µM | > 10 µM | – | – | –
CC(C)[C@H](N)C(=O)OC[C@H]1O[C@@H](n2cc/c(=N/O)[nH]c2=O)[C@@H]2OC(=O)O[C@@H]21.Cl [Compound A6] | – | – | – | – | AUC(0-t) ([2]; analyte A1): 818 ng·h/mL; Cmax ([2]; analyte A1): 326 ng/mL; Tmax ([2]; analyte A1): 1.50 h; t1/2 ([2]; analyte A1): 0.91 h; AUC(0-t) ([2]; nucleoside metabolite NHC): 2417 ng·h/mL; Cmax ([2]; nucleoside metabolite NHC): 1209 ng/mL; T1/2 ([2]; nucleoside metabolite NHC): 0.83 h; Tmax ([2]; nucleoside metabolite NHC): 1.50 h
O=c1ccn([C@@H]2O[C@](F)(CO)[C@@H](O)[C@H]2O)c(=O)[nH]1 [Compound B1-N, reference compound] | < 1 µM | > 10 µM | – | – | inhibition at 5 µM (Zika virus): 30%
O=C1O[C@H]2[C@H](n3ccc(=O)[nH]c3=O)O[C@](F)(CO)[C@H]2O1 [Compound B1] | 0.37 µM | > 10 µM | 0.99 µM | > 10 µM | –
CC(C)C(=O)OC[C@@]1(F)O[C@@H](n2ccc(=O)[nH]c2=O)[C@@H]2OC(=O)O[C@@H]21 [Compound B2] | > 10 µM | > 10 µM | > 10 µM | > 10 µM | –
O=C1O[C@H]2[C@H](n3ccc(=O)[nH]c3=O)O[C@](F)(COC(=O)C3CC3)[C@H]2O1 [Compound B4] | 1.38 µM | > 10 µM | 1.02 µM | > 10 µM | –
CC(C)[C@H](N)C(=O)OC[C@@]1(F)O[C@@H](n2ccc(=O)[nH]c2=O)[C@@H]2OC(=O)O[C@@H]21 [Compound B6] | < 0.5 µM | > 10 µM | 3.46 µM | > 10 µM | –
CCC(CC)COC(=O)[C@H](C)N[P@](=O)(OC[C@@]1(F)O[C@@H](n2ccc(=O)[nH]c2=O)[C@@H]2OC(=O)O[C@@H]21)Oc1ccccc1 [Compound B14] | – | – | 1.08 µM | > 10 µM | –
